Laboratory results taken from patent publication US9745348B2 (The University of Manchester, priority 2011, dated 2017).
Where a SMILES comes first, the peptide text is derived from it. Where no end group is shown, it is not given here. [ ]: non-standard residue; d: D form. Orn = NCCC[C@H](N)C(=O)O

Columns and labels:
[1] = tested on: fibroblasts Adult (HDFa) cells; assay: MTT viability of fibroblasts over three days; assay type: cell-based, human; settings: human, 0.5 %
Method: (§1) MTT assay: Cell viability and proliferation is widely assessed by the MTT assay as already described previously.
(§2) The fibroblasts cells, Neonatal (HDFn) and Adult (HDFa), were both grown until greater than 80% confluent. […] After 24 hour incubation the culture medium was replaced with fresh medium containing an appropriate amount of the peptide for investigation.
(§3) The viability of the fibroblasts, Adult (HDFa) and Neonatal (HDFn) cells in the presence of surfactants was tested by MTT assay over three days relative to control wells containing cells only.

[2] = MTT viability of fibroblasts over three days; assay type: cell-based, human; settings: human, adult fibroblasts (HDFa cells)
Method: as §1, §2, §3

[3] = in vitro; assay type: cell-based; settings: human, neonatal fibroblasts (HDFn cells)
Method: as §1
The fibroblasts cells, Neonatal (HDFn) and Adult (HDFa), were both grown until greater than 80% confluent. The cells were then harvested and seeded into micro well plate at cell densities of 5000 cells/well in a volume […] of medium. After 24 hour incubation the culture medium was replaced with fresh medium containing an appropriate amount of the peptide for investigation.

[4] = tested on: HeLa and HL60 cancer cell lines; settings: 24 h
Method: Antitumor activities of peptides were measured using the 3-(4,5-dimethylthiazol-2-yl)-2,-diphenyl tetrazolium bromide (MTT) assay, and the IC50 value was calculated as the concentration of peptide that induced 50% growth inhibition compared to the untreated control.
HeLa and HL60 cells were seeded in 96-well plates (10^5 cells/well) in a complete medium [Iscove's modified dulbecco's medium (IMDM)] with 10% fetal bovine serum (FBS) for 24 h before peptide treatment. […] Following incubation with peptides, 20 μL of a 5 mg/ml solution MTT reagent was added to each well and incubated for 4 h at 37° C. After removing the supernatant, 150 μL of dimethyl sulfoxide (DMSO) was added to dissolve the formazan crystals that remained in the wells. The absorbance was determined using a microplate ELISA Reader at 570 nm. Wells without cells for blanking the spectrophotometer and the cells without peptides were taken as negative controls.

With `CCCCCCCCCCCCOCCOCCOCCOCCOCCO` [Helix C12E5, Pentaethylene glycol monododecyl ether] the “MTT results (relative MTT reading)” value ([1]; 1 day) was 0.01, the “MTT results (relative MTT reading)” value ([1]; 2 day) was 0.01 and the “MTT results (relative MTT reading)” value ([1]; 3 day) was 0.01.

In the case of “GIKKKIIKKIIKII-NH2 [GIK, GIK(KKII)2 KII-NH2]”, the viability at 24 h, 5 µM [2] is reported as 97%, the viability at 24 h, 25 µM [2] is reported as 92% and the viability at 24 h, 50 µM [2] is reported as 87%. It also gave a viability at 24 h, 100 µM [2] of 85%, a viability at 48 h, 5 µM [2] of 95% and a viability at 48 h, 25 µM [2] of 93%. For the same molecule, the viability at 48 h, 50 µM [2] was 78%, the viability at 48 h, 100 µM [2] was 74% and the viability at 72 h, 5 µM [2] was 91%. It also gave a viability at 72 h, 25 µM [2] of 90%, a viability at 72 h, 50 µM [2] of 73% and a viability at 72 h, 100 µM [2] of 65%. For the same molecule, the viability at 24 h, 5 µM [3] was 93%, the viability at 24 h, 25 µM [3] was 98% and the viability at 24 h, 50 µM [3] was 92%. It also gave a viability at 24 h, 100 µM [3] of 85%, a viability at 48 h, 5 µM [3] of 87% and a viability at 48 h, 25 µM [3] of 84%. The viability at 48 h, 50 µM [3] was 81%, the viability at 48 h, 100 µM [3] was 78% and the viability at 72 h, 5 µM [3] was 83%. For the same molecule, the viability at 72 h, 25 µM [3] was 78%, the viability at 72 h, 50 µM [3] was 75% and the viability at 72 h, 100 µM [3] was 71%.

“GKIKKIIKKIIKII-NH2 [GKI, GKI(KKII)2 KII-NH2]” gave a viability at 24 h, 5 µM [2] of 95%, a viability at 24 h, 25 µM [2] of 93% and a viability at 24 h, 50 µM [2] of 90%. The viability at 24 h, 100 µM [2] was 85%, the viability at 48 h, 5 µM [2] was 82% and the viability at 48 h, 25 µM [2] was 81%. The viability at 48 h, 50 µM [2] was 80%, the viability at 48 h, 100 µM [2] was 75% and the viability at 72 h, 5 µM [2] was 81%. The viability at 72 h, 25 µM [2] was 75%, the viability at 72 h, 50 µM [2] was 71% and the viability at 72 h, 100 µM [2] was 70%. For the same molecule, the viability at 24 h, 5 µM [3] was 95%, the viability at 24 h, 25 µM [3] was 87% and the viability at 24 h, 50 µM [3] was 81%. For the same molecule, the viability at 24 h, 100 µM [3] was 69%, the viability at 48 h, 5 µM [3] was 90% and the viability at 48 h, 25 µM [3] was 83%. The viability at 48 h, 50 µM [3] was 75%, the viability at 48 h, 100 µM [3] was 60% and the viability at 72 h, 5 µM [3] was 88%. It also gave a viability at 72 h, 25 µM [3] of 78%, a viability at 72 h, 50 µM [3] of 71% and a viability at 72 h, 100 µM [3] of 55%. The IC50 [4] was 4 to 25 µM.

Molecule `CC[C@H](C)[C@H](NC(=O)[C@H](CCCN)NC(=O)[C@H](CCCN)NC(=O)[C@@H](NC(=O)[C@@H](NC(=O)[C@H](CCCN)NC(=O)[C@H](CCCN)NC(=O)[C@@H](NC(=O)[C@@H](NC(=O)[C@H](CCCN)NC(=O)[C@H](CCCN)NC(=O)[C@@H](NC(=O)[C@@H](NC(=O)CN)[C@@H](C)CC)[C@@H](C)CC)[C@@H](C)CC)[C@@H](C)CC)[C@@H](C)CC)[C@@H](C)CC)C(N)=O` [GO, G(IIOO)3 I-NH2] (H-GII[Orn][Orn]II[Orn][Orn]II[Orn][Orn]I-NH2) has a viability at 24 h, 5 µM [2] of 101%, a viability at 24 h, 25 µM [2] of 98% and a viability at 24 h, 50 µM [2] of 95%. It also gave a viability at 24 h, 100 µM [2] of 88%, a viability at 48 h, 5 µM [2] of 95% and a viability at 48 h, 25 µM [2] of 92%. It also gave a viability at 48 h, 50 µM [2] of 83%, a viability at 48 h, 100 µM [2] of 75% and a viability at 72 h, 5 µM [2] of 90%. For the same molecule, the viability at 72 h, 25 µM [2] was 82%, the viability at 72 h, 50 µM [2] was 78% and the viability at 72 h, 100 µM [2] was 70%. It also gave a viability at 24 h, 5 µM [3] of 95%, a viability at 24 h, 25 µM [3] of 91% and a viability at 24 h, 50 µM [3] of 88%. It also gave a viability at 24 h, 100 µM [3] of 83%, a viability at 48 h, 5 µM [3] of 91% and a viability at 48 h, 25 µM [3] of 85%. For the same molecule, the viability at 48 h, 50 µM [3] was 81%, the viability at 48 h, 100 µM [3] was 75% and the viability at 72 h, 5 µM [3] was 85%. The viability at 72 h, 25 µM [3] was 80%, the viability at 72 h, 50 µM [3] was 75% and the viability at 72 h, 100 µM [3] was 65%. The IC50 [4] was 4 to 25 µM.

“GIIKKIIKKI-NH2 [Helix G2, G(IIKK)2 I-NH2]” showed a viability at 24 h, 5 µM [2] of 101%, a viability at 24 h, 25 µM [2] of 98% and a viability at 24 h, 50 µM [2] of 92%. The viability at 24 h, 100 µM [2] was 91%, the viability at 48 h, 5 µM [2] was 96% and the viability at 48 h, 25 µM [2] was 90%. It also gave a viability at 48 h, 50 µM [2] of 90%, a viability at 48 h, 100 µM [2] of 88% and a viability at 72 h, 5 µM [2] of 95%. It also gave a viability at 72 h, 25 µM [2] of 88%, a viability at 72 h, 50 µM [2] of 79% and a viability at 72 h, 100 µM [2] of 80%.
